# How the values were obtained:
# [1] = molecular target: Mitogen-activated protein kinase kinase kinase 8 (Homo sapiens) (UniProt P41279); experiment: Inhibition of human COT1 at 18.6 nM by HotSpot assay relative to control
# [2] = molecular target: Serine/threonine-protein kinase 10 (Homo sapiens) (UniProt O94804); experiment: Inhibition of human LOK at 18.6 nM by HotSpot assay relative to control
# [3] = molecular target: MAP kinase-activated protein kinase 2 (Homo sapiens) (UniProt P49137); experiment: Inhibition of human MAPKAPK2 at 18.6 nM by HotSpot assay relative to control
# MAP kinase-activated protein kinase 2 (Homo sapiens), sequence (P49137 whole entry, looked up): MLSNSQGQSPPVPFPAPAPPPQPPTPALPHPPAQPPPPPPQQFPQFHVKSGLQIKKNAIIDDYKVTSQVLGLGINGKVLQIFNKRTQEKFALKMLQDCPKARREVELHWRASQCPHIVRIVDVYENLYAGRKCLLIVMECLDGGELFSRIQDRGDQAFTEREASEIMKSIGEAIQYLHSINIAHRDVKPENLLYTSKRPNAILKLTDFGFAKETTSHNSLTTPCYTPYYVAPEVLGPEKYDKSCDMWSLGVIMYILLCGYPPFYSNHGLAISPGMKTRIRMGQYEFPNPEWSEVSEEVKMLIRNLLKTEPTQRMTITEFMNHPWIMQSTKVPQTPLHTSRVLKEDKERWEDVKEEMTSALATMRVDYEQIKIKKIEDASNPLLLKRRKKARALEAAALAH
# [4] = molecular target: T1, Muscle, skeletal receptor tyrosine-protein kinase (Homo sapiens) (UniProt O15146); experiment: Inhibition of human MUSK at 18.6 nM by HotSpot assay relative to control
# T1 sequence (whole entry): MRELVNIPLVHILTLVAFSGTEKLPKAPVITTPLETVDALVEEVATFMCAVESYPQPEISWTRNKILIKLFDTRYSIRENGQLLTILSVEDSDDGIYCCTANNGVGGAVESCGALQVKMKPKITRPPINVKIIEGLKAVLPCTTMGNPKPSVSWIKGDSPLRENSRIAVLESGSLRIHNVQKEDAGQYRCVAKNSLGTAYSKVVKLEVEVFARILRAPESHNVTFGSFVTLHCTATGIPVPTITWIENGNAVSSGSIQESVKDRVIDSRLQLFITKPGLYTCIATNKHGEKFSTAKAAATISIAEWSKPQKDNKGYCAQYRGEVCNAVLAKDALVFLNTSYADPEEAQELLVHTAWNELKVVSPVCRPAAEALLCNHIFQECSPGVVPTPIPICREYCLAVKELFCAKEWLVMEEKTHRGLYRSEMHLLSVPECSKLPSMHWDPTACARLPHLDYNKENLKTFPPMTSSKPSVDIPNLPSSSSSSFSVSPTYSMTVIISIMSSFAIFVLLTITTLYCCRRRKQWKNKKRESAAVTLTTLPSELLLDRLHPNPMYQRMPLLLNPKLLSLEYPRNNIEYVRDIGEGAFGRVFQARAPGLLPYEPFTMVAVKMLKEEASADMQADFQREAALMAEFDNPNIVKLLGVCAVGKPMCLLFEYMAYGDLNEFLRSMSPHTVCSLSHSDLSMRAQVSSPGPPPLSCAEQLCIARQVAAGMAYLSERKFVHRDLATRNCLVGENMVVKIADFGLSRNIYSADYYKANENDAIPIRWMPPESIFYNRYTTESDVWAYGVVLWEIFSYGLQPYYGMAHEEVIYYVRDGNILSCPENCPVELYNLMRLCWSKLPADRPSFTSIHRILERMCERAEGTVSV
# [5] = molecular target: T2, Tyrosine-protein kinase Tec (Homo sapiens) (UniProt P42680); experiment: Inhibition of human TEC at 18.6 nM by HotSpot assay relative to control
# T2 sequence (whole entry): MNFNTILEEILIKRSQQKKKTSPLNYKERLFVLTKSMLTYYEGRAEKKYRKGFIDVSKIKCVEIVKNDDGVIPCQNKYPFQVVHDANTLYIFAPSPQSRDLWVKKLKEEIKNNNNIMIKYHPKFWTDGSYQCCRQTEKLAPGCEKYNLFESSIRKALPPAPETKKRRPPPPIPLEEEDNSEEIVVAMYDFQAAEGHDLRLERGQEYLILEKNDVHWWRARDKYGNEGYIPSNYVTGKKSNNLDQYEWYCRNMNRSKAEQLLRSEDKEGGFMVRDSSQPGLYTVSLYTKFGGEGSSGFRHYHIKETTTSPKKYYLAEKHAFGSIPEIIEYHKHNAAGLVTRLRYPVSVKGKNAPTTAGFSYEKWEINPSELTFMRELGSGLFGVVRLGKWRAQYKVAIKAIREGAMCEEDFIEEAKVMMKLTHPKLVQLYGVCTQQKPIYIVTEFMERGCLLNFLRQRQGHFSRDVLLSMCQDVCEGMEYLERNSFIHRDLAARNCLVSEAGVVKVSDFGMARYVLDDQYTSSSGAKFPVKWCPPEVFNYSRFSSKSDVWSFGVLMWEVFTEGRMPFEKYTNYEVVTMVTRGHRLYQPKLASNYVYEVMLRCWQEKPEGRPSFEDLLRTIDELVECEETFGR
# [6] = molecular target: Tyrosine-protein kinase ABL1 (Homo sapiens) (UniProt P00519); experiment: Inhibition of human ABL1 at 1.82 nM by HotSpot assay relative to control
# Tyrosine-protein kinase ABL1 (Homo sapiens), sequence (P00519 whole entry): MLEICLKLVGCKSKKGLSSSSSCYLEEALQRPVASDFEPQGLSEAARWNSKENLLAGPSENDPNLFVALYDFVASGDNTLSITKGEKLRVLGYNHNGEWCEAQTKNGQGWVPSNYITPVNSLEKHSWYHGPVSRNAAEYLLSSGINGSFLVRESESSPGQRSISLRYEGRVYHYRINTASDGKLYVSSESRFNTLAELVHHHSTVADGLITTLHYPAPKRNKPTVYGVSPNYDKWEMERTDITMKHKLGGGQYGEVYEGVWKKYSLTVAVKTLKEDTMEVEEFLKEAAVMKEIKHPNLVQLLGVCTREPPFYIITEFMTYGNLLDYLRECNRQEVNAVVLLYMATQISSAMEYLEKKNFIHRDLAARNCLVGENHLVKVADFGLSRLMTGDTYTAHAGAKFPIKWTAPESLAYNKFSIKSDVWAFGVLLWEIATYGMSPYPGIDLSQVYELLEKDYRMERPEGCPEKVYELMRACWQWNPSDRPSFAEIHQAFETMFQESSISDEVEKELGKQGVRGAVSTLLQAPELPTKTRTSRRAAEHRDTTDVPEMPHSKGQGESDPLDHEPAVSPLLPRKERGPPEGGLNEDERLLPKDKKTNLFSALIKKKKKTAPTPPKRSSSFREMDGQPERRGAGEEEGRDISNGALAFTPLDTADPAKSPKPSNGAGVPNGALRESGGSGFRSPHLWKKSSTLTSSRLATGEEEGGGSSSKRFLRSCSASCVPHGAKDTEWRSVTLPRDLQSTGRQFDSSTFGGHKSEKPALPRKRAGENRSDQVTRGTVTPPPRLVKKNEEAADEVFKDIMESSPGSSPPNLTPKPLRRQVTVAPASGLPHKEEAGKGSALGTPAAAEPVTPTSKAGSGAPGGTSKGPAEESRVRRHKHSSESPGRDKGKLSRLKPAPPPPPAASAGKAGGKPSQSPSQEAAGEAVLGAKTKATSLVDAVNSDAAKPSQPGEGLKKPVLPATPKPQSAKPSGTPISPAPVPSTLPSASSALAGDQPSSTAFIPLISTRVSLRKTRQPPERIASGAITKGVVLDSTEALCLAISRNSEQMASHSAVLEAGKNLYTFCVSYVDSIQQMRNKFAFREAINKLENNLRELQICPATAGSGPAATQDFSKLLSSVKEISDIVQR
# [7] = molecular target: Death-associated protein kinase 1 (Homo sapiens) (UniProt P53355); experiment: Inhibition of human DAPK1 at 1.82 nM by HotSpot assay relative to control
# Death-associated protein kinase 1 (Homo sapiens), sequence (P53355 whole entry, looked up): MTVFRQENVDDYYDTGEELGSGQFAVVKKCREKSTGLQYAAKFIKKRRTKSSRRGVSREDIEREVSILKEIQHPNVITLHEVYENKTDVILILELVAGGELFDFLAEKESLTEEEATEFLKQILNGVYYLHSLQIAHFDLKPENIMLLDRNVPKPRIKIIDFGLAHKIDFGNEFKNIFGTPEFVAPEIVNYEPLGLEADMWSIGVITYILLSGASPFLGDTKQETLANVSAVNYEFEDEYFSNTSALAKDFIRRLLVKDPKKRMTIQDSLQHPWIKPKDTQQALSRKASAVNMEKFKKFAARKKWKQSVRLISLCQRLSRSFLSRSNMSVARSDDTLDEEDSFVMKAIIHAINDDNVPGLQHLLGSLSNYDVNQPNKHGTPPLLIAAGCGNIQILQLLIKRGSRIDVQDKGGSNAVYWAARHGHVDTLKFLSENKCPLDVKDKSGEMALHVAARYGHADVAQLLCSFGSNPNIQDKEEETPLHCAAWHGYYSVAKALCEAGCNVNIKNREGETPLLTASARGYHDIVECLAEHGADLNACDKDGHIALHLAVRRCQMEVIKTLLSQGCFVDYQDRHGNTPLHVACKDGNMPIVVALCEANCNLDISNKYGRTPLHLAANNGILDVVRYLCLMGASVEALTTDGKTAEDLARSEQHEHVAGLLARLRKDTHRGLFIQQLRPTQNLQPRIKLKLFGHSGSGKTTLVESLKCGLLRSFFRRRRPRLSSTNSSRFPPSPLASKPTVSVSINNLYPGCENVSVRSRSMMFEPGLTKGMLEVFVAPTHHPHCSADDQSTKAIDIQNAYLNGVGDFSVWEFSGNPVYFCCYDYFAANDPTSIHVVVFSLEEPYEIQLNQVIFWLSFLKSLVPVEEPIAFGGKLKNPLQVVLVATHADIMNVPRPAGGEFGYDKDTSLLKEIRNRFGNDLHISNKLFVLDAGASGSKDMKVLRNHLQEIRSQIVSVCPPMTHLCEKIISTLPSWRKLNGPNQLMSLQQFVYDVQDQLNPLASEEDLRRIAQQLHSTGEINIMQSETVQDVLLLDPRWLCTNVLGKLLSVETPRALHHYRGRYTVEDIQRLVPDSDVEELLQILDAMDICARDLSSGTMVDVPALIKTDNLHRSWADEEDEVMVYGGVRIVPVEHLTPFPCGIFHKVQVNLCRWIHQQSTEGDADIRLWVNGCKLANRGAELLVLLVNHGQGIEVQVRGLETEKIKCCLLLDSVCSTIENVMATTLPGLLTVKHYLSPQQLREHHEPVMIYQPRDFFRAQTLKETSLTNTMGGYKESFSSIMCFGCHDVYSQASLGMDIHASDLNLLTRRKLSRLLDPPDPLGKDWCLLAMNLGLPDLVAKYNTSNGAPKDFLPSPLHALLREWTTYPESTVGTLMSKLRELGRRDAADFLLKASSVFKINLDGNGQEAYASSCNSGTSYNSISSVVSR
# [8] = molecular target: T3, Serine/threonine-protein kinase Nek11 (Homo sapiens) (UniProt Q8NG66); experiment: Inhibition of human NEK11 at 1.82 nM by HotSpot assay relative to control
# T3 sequence (whole entry): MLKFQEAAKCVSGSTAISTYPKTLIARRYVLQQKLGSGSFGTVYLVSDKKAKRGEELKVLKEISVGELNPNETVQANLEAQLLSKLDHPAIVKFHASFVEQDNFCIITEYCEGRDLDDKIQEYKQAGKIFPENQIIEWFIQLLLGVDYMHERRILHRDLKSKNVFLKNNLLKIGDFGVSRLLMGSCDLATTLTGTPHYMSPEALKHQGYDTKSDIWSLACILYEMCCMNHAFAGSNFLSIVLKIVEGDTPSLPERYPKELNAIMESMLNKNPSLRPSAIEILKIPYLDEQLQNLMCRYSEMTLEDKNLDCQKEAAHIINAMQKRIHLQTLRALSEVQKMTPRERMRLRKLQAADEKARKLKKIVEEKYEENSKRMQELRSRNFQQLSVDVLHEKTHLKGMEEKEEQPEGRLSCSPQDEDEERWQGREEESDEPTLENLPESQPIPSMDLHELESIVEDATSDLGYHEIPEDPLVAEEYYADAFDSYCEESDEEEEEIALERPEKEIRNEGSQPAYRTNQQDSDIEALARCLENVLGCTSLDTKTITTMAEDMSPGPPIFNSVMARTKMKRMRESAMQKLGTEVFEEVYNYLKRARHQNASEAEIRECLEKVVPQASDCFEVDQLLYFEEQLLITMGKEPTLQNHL
# [9] = molecular target: T4, Mitogen-activated protein kinase 12 (Homo sapiens) (UniProt P53778); experiment: Inhibition of human P38g at 1.82 nM by HotSpot assay relative to control
# T4 sequence (whole entry): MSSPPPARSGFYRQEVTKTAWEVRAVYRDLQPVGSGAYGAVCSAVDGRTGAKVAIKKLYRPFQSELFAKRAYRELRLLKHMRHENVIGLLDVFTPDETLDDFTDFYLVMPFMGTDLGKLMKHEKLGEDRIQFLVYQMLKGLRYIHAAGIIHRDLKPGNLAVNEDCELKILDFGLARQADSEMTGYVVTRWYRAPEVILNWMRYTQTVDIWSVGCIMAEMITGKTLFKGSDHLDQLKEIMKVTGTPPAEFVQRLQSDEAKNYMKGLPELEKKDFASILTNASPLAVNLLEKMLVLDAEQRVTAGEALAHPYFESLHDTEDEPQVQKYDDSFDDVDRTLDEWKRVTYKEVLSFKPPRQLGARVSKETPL
# Mitogen-activated protein kinase kinase kinase 8 (Homo sapiens), sequence (P41279 whole entry): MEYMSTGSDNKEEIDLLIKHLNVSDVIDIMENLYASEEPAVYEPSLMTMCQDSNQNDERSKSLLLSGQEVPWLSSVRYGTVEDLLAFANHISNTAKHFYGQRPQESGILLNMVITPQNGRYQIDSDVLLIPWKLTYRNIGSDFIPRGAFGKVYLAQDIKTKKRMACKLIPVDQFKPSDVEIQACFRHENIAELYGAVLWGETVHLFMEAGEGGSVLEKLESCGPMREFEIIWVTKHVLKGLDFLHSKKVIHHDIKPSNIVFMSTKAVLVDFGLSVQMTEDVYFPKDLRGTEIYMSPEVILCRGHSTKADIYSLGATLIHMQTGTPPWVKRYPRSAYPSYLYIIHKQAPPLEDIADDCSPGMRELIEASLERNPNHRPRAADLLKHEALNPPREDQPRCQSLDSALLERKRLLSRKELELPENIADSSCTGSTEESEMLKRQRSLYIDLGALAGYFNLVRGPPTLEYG
# Serine/threonine-protein kinase 10 (Homo sapiens), sequence (O94804 whole entry, looked up): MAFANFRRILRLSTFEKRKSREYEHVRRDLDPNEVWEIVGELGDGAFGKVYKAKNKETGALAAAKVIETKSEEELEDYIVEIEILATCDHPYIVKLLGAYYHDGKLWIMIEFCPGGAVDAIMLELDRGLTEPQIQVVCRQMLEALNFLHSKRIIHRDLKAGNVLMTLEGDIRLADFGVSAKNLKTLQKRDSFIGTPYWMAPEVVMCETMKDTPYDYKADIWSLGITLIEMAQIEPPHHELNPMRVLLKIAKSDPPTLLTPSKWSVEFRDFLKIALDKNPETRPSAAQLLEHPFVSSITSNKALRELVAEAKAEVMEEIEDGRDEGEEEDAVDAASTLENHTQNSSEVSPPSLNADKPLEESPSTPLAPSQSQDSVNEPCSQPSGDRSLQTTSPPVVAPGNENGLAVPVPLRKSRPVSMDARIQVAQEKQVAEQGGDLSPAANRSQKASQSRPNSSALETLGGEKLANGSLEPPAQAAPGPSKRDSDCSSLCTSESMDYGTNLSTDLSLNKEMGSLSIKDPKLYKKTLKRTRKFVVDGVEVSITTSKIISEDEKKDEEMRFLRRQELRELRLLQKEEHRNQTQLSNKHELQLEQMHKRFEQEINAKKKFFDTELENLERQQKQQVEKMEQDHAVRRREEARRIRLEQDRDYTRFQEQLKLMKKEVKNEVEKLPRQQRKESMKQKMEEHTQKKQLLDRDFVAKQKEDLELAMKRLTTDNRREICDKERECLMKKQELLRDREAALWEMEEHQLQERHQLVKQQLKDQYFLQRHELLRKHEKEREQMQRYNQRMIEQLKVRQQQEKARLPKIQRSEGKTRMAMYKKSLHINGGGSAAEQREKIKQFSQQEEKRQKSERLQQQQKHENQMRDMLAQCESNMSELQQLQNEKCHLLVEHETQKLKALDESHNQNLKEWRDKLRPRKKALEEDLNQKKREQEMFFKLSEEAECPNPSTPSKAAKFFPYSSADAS
inhibition [1] [%],inhibition [2] [%],inhibition [3] [%],inhibition [4] [%],inhibition [5] [%],inhibition [6] [%],inhibition [8] [%],inhibition [9] [%],SMILES,inhibition [7] [%]
4.92,9.09,5.71,1.47,2.21,–,–,–,C[C@]1(O)C[C@@H](c2nc(-c3ccc4ccc(-c5ccccc5)nc4c3)c3c(N)nccn32)C1,–
–,–,–,–,–,3.21,-5.31,-4.67,C[C@@]1(C(=O)Nc2ccc(F)nc2)CCCN1c1nc(Nc2cc(C3CC3)n[nH]2)c2cccn2n1,3.56

# Reference: ChEMBL document CHEMBL5653615 (J Biol Chem, 2013)
